Values quoted from earlier work in patent publication US8808745B2 (Egalet Ltd., priority 2001, dated 2014).

Settings: single dose of 10 mg oral morphine, plain tablet composition

## CN1CC[C@]23c4c5ccc(O)c4O[C@H]2[C@@H](O)C=C[C@H]3[C@H]1C5 [morphine]
  average duration of action: 4 to 5 h
